Experimental data as given in patent US12325709B2, “Cannabinoid derivatives” (CANOPY GROWTH CORPORATION, priority 2019, dated 2025).

How the values were obtained:
[1] = biological target: T1, human CB1 receptor (Homo sapiens, UniProt P21554); experiment: CB1 radioligand competitive binding assay ([3H]CP 55,940 displacement)
T1 construct: host or cells: CHO-K1 (Chinese hamster ovary) cells, stably transfected; membranes prepared in house

[2] = biological target: T2, human CB2 receptor (Homo sapiens, UniProt P34972); experiment: CB2 radioligand competitive binding assay ([3H]CP 55,940 displacement); conditions: for Selectivity CB2: fold difference in binding between CB1 and CB2, shown in column of receptor with higher affinity, 1.00 in both = about the same affinity
T2 construct: host or cells: CHO-K1 (Chinese hamster ovary) cells, stably transfected; membranes prepared in house
Experimental: Compounds of the present disclosure were tested for CB1 receptor binding affinity and for CB2 receptor binding affinity. As used herein, “binding affinity” is represented by the IC50 value, which was experimentally determined as described herein. The lower the IC50 value the higher the binding affinity.
The membranes were prepared from CHO-K1 (Chinese hamster ovary) cells stably transfected with the human CB2 receptor (Cat. #ES-111-C; Perkin Elmer, Boston, MA). The cells were grown adherently and maintained in Ham's F12 medium containing 10% fetal bovine serum (FBS), penicillin, streptomycin and geneticin (G418) at 37° C. in a humid atmosphere of 5% CO2 following the manufacturer's instructions.
For membrane preparation the cells were washed with PBS and scraped off the plates in cold homogenization buffer (25 mM HEPES (pH 7.4), 2 mM EDTA) containing protease inhibitor cocktail (Sigma Cat. #P8340). The cell suspension was homogenized with a Pro-PK-01200D Polytron Homogenizer (Pro Scientific) and then centrifuged for 30 min at 120,000×g. The supernatant was discarded and the pellet was re-suspended in the homogenization buffer and stored at −80° C. until the time of use.
In this experiment, 3H radiolabeled CP 55,940, i.e. [3H]CP 55,940 (Perkin Elmer, Boston, MA), was used as a radioligand for the CB2 receptor to determine the binding affinity of compounds for the CB2 receptor (Scheme 3; above).
The competition binding experiments (single dose and dose-response) were performed by incubating 0.6 nM of [3H]CP55,940 (specific activity 101 Ci/mmol, Perkin Elmer) and different concentrations of compounds disclosed herein with membranes prepared as above from CHO-K1 cells expressing human CB2 receptor (1 μg of protein/well), 50 mM Tris-HCl (pH 7.4), 5 mM MgCl2, 1 mM CaCl2, and 2 mg/mL BSA.
For the dose-response experiments the test compounds were sequentially diluted to provide the desired concentration range for the IC50 determination. In each case the compounds were pre-incubated with the membrane for 20 min, before adding the radioligand.
After incubation with the radioligand for 60 min at 37° C., the incubation was terminated by rapid filtration of assay mixture through MultiScreen®HTS^+ 96-well filter plates (Millipore, Cat. #MSFCNXB), pre-soaked for 60 min with 50 mM Tris-HCl (pH 7.4) containing 0.33% polyethylenimine (PEI). The nonspecific binding (NSB) was determined in the presence of 10 μM unlabelled CP55,940. After drying the filter plate at 50° C. for at least 60 min, the filter-bound radioactivity was determined by scintillation spectrometry using the 1450 MicroBeta Plate Counter (Perkin Elmer, Boston, MA).

T1 sequence (P21554 whole entry): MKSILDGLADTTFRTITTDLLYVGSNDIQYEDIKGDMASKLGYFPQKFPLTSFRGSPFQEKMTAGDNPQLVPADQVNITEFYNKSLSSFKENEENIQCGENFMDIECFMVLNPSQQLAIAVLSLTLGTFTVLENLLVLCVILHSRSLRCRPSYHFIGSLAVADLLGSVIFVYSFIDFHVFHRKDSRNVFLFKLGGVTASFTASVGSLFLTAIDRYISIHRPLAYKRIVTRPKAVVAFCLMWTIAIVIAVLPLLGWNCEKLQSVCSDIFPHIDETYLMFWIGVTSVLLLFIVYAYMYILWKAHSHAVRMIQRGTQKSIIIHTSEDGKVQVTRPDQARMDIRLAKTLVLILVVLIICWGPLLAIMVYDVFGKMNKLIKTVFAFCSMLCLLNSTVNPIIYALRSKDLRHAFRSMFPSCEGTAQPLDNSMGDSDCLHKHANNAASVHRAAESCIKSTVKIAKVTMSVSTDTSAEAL
T2 sequence (P34972 whole entry): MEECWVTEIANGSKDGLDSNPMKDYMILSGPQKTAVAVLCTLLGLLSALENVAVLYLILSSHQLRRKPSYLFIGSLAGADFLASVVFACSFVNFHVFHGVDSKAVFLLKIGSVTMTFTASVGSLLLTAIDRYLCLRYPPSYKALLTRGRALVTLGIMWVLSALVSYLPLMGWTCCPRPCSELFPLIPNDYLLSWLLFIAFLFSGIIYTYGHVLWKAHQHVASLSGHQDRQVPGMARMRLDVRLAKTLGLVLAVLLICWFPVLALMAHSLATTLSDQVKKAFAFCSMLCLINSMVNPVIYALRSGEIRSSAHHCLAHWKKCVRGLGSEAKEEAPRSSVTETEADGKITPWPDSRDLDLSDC

Row | SMILES | IC50 [1] [nM] | IC50 [2] [nM] | Selectivity CB2 [2] [fold]
1 | CCCc1c(CN(C)C(=O)OC)c(O)c(C2C=C(C)CCC2)c(O)c1CN(C)C(=O)OC (stereo not drawn) [59′c, dimethyl ((2,6-dihydroxy-5′-methyl-4-propyl-1′,2′,3′,4′-tetrahydro-[1,1′-biphenyl]-3,5-diyl)bis(methylene))bis(methylcarbamate)] | 1000 to 4990 | 100 to 990 | 3.25
2 | CCCCCc1cc(O)c(C2C=C(C)CCC2)c(O)c1C(=O)NC (stereo not drawn) [Compound 1c, 2,6-dihydroxy-N,5′-dimethyl-4-pentyl-1′,2′,3′,4′-tetrahydro-[1,1′-biphenyl]-3-carboxamide] | > 5000 | 1000 to 4990 | 3.20
3 | C=C(C)[C@@H]1CCC(C)=C[C@H]1c1c(O)cc(CCCCC)c(C(=O)NC)c1O [Compound 1d, 2,6-dihydroxy-N,5′-dimethyl-4-pentyl-2′-(prop-1-en-2-yl)-1′,2′,3′,4′-tetrahydro-[1,1′-biphenyl]-3-carboxamide] | 1000 to 4990 | 100 to 990 | 1.26
4 | C=C(C)[C@@H]1CCC(C)=C[C@H]1c1c(O)cc(CCCCC)c(C(=O)NCC)c1O [Compound 3d, N-ethyl-2,6-dihydroxy-5′-methyl-4-pentyl-2′-(prop-1-en-2-yl)-1′,2′,3′,4′-tetrahydro-[1,1′-biphenyl]-3-carboxamide] | 1000 to 4990 | 1000 to 4990 | 1.80
5 | CCCCCc1cc(O)c(C2C=C(C)CCC2)c(O)c1C(=O)NC1CC1 (stereo not drawn) [Compound 6c, N-cyclopropyl-2,6-dihydroxy-5′-methyl-4-pentyl-1′,2′,3′,4′-tetrahydro-[1,1′-biphenyl]-3-carboxamide] | 1000 to 4990 | < 100 | 40.14
6 | C=C(C)[C@@H]1CCC(C)=C[C@H]1c1c(O)cc(CCCCC)c(C(=O)NC2CC2)c1O [Compound 6d, N-cyclopropyl-2,6-dihydroxy-5′-methyl-4-pentyl-2′-(prop-1-en-2-yl)-1′,2′,3′,4′-tetrahydro-[1,1′-biphenyl]-3-carboxamide] | > 5000 | 1000 to 4990 | 9.09
7 | CCCCCc1cc(O)c(C2C=C(C)CCC2)c(O)c1C(=O)NC1CCCC1 (stereo not drawn) [Compound 7c, N-cyclopentyl-2,6-dihydroxy-5′-methyl-4-pentyl-1′,2′,3′,4′-tetrahydro-[1,1′-biphenyl]-3-carboxamide] | 100 to 990 | < 100 | 188.10
8 | C=C(C)[C@@H]1CCC(C)=C[C@H]1c1c(O)cc(CCCCC)c(C(=O)Nc2ccc(OC)cc2)c1O [Compound 11d, 2,6-dihydroxy-N-(4-methoxyphenyl)-5′-methyl-4-pentyl-2′-(prop-1-en-2-yl)-1′,2′,3′,4′-tetrahydro-[1,1′-biphenyl]-3-carboxamide] | 1000 to 4990 | 100 to 990 | 3.11
9 | CCCCCc1cc(O)c(C2C=C(C)CCC2)c(O)c1C(=O)NCc1ccccc1 (stereo not drawn) [Compound 14c, N-benzyl-2,6-dihydroxy-5′-methyl-4-pentyl-1′,2′,3′,4′-tetrahydro-[1,1′-biphenyl]-3-carboxamide] | 1000 to 4990 | < 100 | 1300.00
10 | C=C(C)C1CCC(C)=CC1c1c(O)cc(CCCCC)c(C(=O)NCc2ccccc2)c1O (stereo not drawn) [Compound 14d, N-benzyl-2,6-dihydroxy-5′-methyl-4-pentyl-2′-(prop-1-en-2-yl)-1′,2′,3′,4′-tetrahydro-[1,1′-biphenyl]-3-carboxamide] | > 5000 | 1000 to 4990 | 13.50
11 | CCCCCc1cc(O)c(-c2cccc(C)c2)c(O)c1C(=O)NCc1cccnc1 [Compound 15a, 2,6-dihydroxy-3′-methyl-4-pentyl-N-(pyridin-3-ylmethyl)-[1,1′-biphenyl]-3-carboxamide] | > 5000 | 100 to 990 | 17.62
